These results are taken from patent publication US12285392B2, “Method for modulating metabolism” (Brightseed, Inc., priority 2018, dated 2025).

SMILES strings stand for the structures.

The subject of series [1] is estrogenic activity. The experiment in a line: Counter-screen for estrogenic activity (E47MER luciferase reporter in HeLa cells). In kind it is cell-based, human. The following applies: FIG. 5. As to the method: Counter-Screen for Estrogenic Activity. Estrogenic activity was monitored by co-transfection of a reporter plasmid containing a multimerized E-box 5′ of a minimal promoter fused to the Firefly luciferase gene (4RTK-luc) with wild-type E47 or E47MER (Kiselyuk, et al. (2010) J. Biomol. Screen 15(6):663-70). HeLa cells were transfected using polyethylenimine, 0.2 μg 4RTK-Luc plasmid and either 0.3 μg of human E47, E47MER or pMSCVhph vector in 50 μl of serum-free Dulbecco's modification of Eagle medium per well. Transfections included Renilla luciferase (pRL-TK) plasmid as a control for transfection efficacy. Transfection conditions were as described in the PPRE-Luc reporter assay of Kiselyuk, et al. ((2010) J. Biomol. Screen 15(6):663-70). Sixteen hours after transfection, culture media were changed and maintained for 48 hours with tamoxifen and/or compound or vehicle (DMSO). Cells were then lysed and assayed for luciferase activity using the Promega DUAL-LUCIFERASE® reporter assay kit (Promega Corp., Madison, WI), and luminescence was measured using the Veritas™ Microplate Luminometer (Turner Biosystems, Sunnyvale, CA). Data were normalized to Renilla luciferase (pRL-TK) and expressed as fold-change over vehicle alone.

The target in series [2] is T1, HNF4α (Homo sapiens, UniProt P41235).
T1 construct: endogenous in cells; host or cells: T6PNE cells
T1 sequence (P41235 1-474): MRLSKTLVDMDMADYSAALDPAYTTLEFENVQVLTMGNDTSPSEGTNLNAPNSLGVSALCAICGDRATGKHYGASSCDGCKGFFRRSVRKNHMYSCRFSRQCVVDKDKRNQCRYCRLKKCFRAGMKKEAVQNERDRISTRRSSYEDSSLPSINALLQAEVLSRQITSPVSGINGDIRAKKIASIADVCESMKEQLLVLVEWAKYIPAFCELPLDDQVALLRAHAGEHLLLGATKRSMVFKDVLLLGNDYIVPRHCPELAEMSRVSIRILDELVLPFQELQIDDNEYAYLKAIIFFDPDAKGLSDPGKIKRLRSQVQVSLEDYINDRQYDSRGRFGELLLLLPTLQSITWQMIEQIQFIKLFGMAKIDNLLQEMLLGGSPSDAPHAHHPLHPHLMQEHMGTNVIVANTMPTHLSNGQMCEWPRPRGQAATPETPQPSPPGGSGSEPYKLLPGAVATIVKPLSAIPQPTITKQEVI
The experiment in a line: Insulin promoter activity assay in T6PNE cells (HNF4α activity). In kind it is cell-based. As to the method: Insulin Promoter Activity. T6PNE cells (Kiselyuk, et al. (2012) Chem Biol. 19(7):806-818; Kiselyuk, et al. (2010) J. Biomol. Screen 15(6):663-70) are seeded at 2000 cells per well in 384-well tissue culture plates in the presence of 1 μM tamoxifen and 0.03 mM palmitate. After a 24-hour incubation, a compound or extract of the invention is added to the cells. Forty-eight hours after compound or extract addition, cells are fixed in 4% paraformaldehyde and stained with DAPI. Blue (DAPI) and green (human insulin promoter driving GFP) channels are imaged.
Inhibition of HNF4α GFP Expression. Using the insulin promoter assay described herein, activity of HNF4α was assessed in the presence of BI-6015 (0, 2.5, 5 μM), a known antagonist of HNF4α (Kiselyuk, et al. (2012) Chem. Biol. 19(7):806-818), in combination with N-trans-caffeoyltyramine (0, 5, 10, 20 μM).
Given the role of HNF4α in maintaining a heal thy metabolism in humans, test compounds were screened for activity as HNF4α agonists (either direct or indirect effects). Using a known insulin promoter-reporter assay, Kiselyuk and colleagues (2010. J. Biomol. Screen 15(6):663-70), screened a library of compounds for activity to promote insulin activation. […] The OTC promoter is known to be responsive to HNF4α in transient transfection assays (Inoue, et al. (2002) J. Biol. Chem. 277:25257-65).

For series [3], the system named is T6PNE cells. The series can be described thus: Lipid clearance in T6PNE cells (steatosis assay). In kind it is cell-based. As to the method:
T6PNE cells were pretreated for 1 day with 0.06 mM, 0.12 mM or 0.25 mM palmitate at which time 15 μM N-trans-caffeoyltyramine or control (DMSO) was added. Cells were harvested on day 3, 6 and 8 and subjected to staining with Nile Red and Oil Red O. Results are expressed as fold change in Nile Red staining: +palmitate/10% FBS medium (no palmitate)
Lipid Clearance in HepG2 and T6PNE Cells (Steatosis Assay). The steatosis assay was carried out as described (Kiselyuk, et al. (2012) Chem. Biol. 19(7):806-818) with the exception of the drug concentration, which was 20 μM for N-trans-caffeoyltyramine with 0.25 mM palmitate in HepG2 cell lines, and 10 μM of either N-trans-caffeoyltyramine, N-trans-caffeoyltyramine, or pcoumaroyltyramine, with 0.25 mM palmitate in T6PNE cell lines. Steatosis was assessed using the Oil Red 0 Method for Fats kits (Poly Scientific; Warrington, PA), per manufacturer's guidelines. Briefly, frozen tissue slides or fixed cells were incubated in neat propylene glycol for 2 minutes and Oil Red 0 solution for 15 hours for slides or 1 hour for fixed cells, differentiated in 85% propylene glycol solution for 1 minute, washed twice with distilled water and stained in Hematoxylin of 10 seconds. Slides were mounted with glycerin jelly mounting medium.

Series [4] in a line: Hepatic microsome stability assay, rat. The following applies: rat microsomes. The format is in vitro ADME. As to the method: Hepatic Microsome Assay. Hepatic microsomes stability assays were performed in accordance with known methods (Peddibhotla, et al. (2013) ACS Med. Chem. Lett. 4:846-851). Briefly, 3 μL of 25 μM compound solution in acetonitrile were incubated with 123 μL of mouse, human or rat liver microsomes (Xenotech, Kansas City, Kans.). […] The microsomal concentrations used were 1.0 mg/mL. Compounds were incubated in microsomes for 0, 5, 15, 30 and 60 minutes. The reactions were stopped by the addition of ice cold ACN and the reaction mixtures were centrifuged at 10,000 g for 10 minutes before the supernatant was removed for analysis. A 10 μL portion of the resulting extract was injected on a Thermo HPLC system equipped with PAL CTC plate sampler (96-well plate), Dionex Ultimate 3000 binary pump (flow rate at 0.600 mL/min), Dionex Ultimate 3000 thermostatted column compartment (temperature at 40° C.), Thermo Endura Mass Spectrometer (ESI source), using a Thermo Scientific Accucore C18 (2.6 μM, 2.1×50 mm) column. A gradient was run starting at 95% H2O (0.1% formic acid) and 5% ACN (0.1% formic acid) during the first 0.5 min, then under gradient condition of 5-100% ACN (0.1% formic acid) from minute 0.5 to 3.5, finishing at 95% H2O (0.1% formic acid) and 5% ACN (0.1% formic acid) over 0.5 min, with another 1 min at 95:5 to re-equilibrate.

`O=C(/C=C/c1ccc(O)c(O)c1)NCCc1ccc(O)cc1` [N-trans-caffeoyltyramine]: the Estrogenic activity entry in series [1] was “did not exhibit estrogenic activity”. Moreover, the “Potency in activating HNF4α relative to Alverine” value in series [2] (FIG. 1, insulin promoter activity dose-response) is “roughly an order-of-magnitude more potent than Alverine”. For the same molecule, in series [2] (screening in the HNF4α assay), the “HNF4α modulation in screening” value is on record as “able to act as HNF4α modulators”. The Fat accumulation entry in series [3] (10 μM, 0.25 mM palmitate) is “inhibition of fat accumulation”. The “Lipid accumulation when palmitate was added prior to compound” value in series [3] (FIG. 6, 15 μM) was “reduced lipid accumulation”. For the same molecule, the figures for the “% Remaining” value in series [4] (1 μM) and in series [4] (10 μM) were 0.6% and 33.6%, respectively.
